The source of these data is patent publication US11713327B2, “Heteroaryl heterocyclyl compounds for the treatment of autoimmune disease” (Hoffmann-La Roche Inc., priority 2018, dated 2023).

Data set [1] has as its target hERG K+ channels (Homo sapiens (Human), UniProt Q12809). In words: hERG channel inhibition assay (patch-clamp, CHOhERG cells). Type of data set: cell-based. Conditions: for safety window (hERG IC20/TLR7/8/9 IC50): compared to the compounds of this invention; for hERG IC20/TLR7 IC50 / hERG IC20/TLR9 IC50: safety ratio. The method, then:
hERG Channel Inhibition Assay:
The hERG K^+ channels were cloned in humans and stably expressed in a CHO (Chinese hamster ovary) cell line. CHOhERG cells were used for patch-clamp (voltage-clamp, whole-cell) experiments. Cells were stimulated by a voltage pattern to activate hERG channels and conduct IKhERG currents (rapid delayed outward rectifier potassium current of the hERG channel). After the cells were stabilized for a few minutes, the amplitude and kinetics of IKhERG were recorded at a stimulation frequency of 0.1 Hz (6 bpm). Thereafter, the test compound was added to the preparation at increasing concentrations. For each concentration, an attempt was made to reach a steady-state effect, usually, this was achieved within 3-10 min at which time the next highest concentration was applied. The amplitude and kinetics of IKhERG are recorded in each concentration of the drug which were compared to the control values (taken as 100%). (references: Redfern W S, Carlsson L, Davis A S, Lynch W G, MacKenzie I, Palethorpe S, Siegl P K, Strang I, Sullivan A T, Wallis R, Camm A J, Hammond T G. 2003; Relationships between preclinical cardiac electrophysiology, clinical QT interval prolongation and torsade de pointes for a broad range of drugs: evidence for a provisional safety margin in drug development. Cardiovasc. Res. 58:32-45, Sanguinetti M C, Tristani-Firouzi M. 2006; hERG potassium channels and cardiac arrhythmia. Nature 440:463-469, Webster R, Leishman D, Walker D. 2002; Towards a drug concentration effect relationship for QT prolongation and torsades de pointes. Curr. Opin. Drug Discov. Devel. 5:116-26).
In general terms: The hERG channel carries a current that helps repolarise heart muscle cells.

Data set [2] is described as follows: Human microsome stability assay. To be noted: 1 μM test compound, 0.5 mg/mL liver microsomal protein. Format: in vitro ADME. Here is the method: Human Microsome Stability Assay
The human microsomal stability assay is used for early assessment of metabolic stability of a test compound in human liver microsomes.
Human liver microsomes (Cat. NO.: 452117, Corning, USA; Cat. NO.: H2610, Xenotech, USA) were preincubated with test compound for 10 minutes at 37° C. in 100 mM potassium phosphate buffer, pH 7.4. The reactions were initiated by adding NADPH regenerating system. The final incubation mixtures contained 1 μM test compound, 0.5 mg/mL liver microsomal protein, 1 mM MgCl2, 1 mM NADP, 1 unit/mL isocitric dehydrogenase and 6 mM isocitric acid in 100 mM potassium phosphate buffer, pH 7.4. After incubation times of 0, 3, 6, 9, 15 and 30 minutes at 37° C., 300 μL of cold acetonitrile (including internal standard) was added to 100 μL incubation mixture to terminate the reaction. Following precipitation and centrifugation, the amount of compound remaining in the samples were determined by LC-MS/MS. Controls of no NADPH regenerating system at zero and 30 minutes were also prepared and analyzed.

Chain of hERG K+ channels (Q12809 whole entry): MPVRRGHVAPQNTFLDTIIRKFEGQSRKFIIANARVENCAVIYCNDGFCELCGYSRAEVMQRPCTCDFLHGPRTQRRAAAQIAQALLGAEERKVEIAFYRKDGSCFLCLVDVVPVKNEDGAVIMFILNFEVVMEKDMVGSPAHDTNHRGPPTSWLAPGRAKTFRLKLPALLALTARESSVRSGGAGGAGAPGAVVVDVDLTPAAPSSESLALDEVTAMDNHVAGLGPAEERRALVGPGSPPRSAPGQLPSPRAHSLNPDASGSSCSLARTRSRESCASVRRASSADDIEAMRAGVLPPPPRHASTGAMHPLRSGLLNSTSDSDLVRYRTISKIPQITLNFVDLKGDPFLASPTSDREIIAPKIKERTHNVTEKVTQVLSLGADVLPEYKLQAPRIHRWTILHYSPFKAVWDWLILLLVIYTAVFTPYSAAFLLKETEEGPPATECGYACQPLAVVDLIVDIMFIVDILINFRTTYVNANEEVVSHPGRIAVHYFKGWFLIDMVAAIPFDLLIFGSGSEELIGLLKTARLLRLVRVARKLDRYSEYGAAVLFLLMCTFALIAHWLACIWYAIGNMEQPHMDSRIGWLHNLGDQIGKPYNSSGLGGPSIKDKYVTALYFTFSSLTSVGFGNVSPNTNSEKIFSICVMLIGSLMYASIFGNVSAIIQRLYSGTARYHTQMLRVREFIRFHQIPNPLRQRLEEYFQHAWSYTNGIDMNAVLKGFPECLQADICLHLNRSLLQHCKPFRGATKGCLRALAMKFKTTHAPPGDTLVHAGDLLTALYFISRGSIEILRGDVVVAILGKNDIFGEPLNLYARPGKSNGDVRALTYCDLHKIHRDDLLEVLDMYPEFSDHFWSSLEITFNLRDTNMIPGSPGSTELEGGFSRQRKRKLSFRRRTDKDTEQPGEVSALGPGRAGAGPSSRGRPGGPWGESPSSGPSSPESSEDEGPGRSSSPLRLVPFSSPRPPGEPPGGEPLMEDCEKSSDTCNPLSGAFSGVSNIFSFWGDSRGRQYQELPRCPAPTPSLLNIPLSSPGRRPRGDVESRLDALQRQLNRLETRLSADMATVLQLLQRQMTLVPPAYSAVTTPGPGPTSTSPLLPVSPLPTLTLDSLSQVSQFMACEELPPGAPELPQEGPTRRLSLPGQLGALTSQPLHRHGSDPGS

Regarding `C[C@@H]1CN(c2ccc(C#N)c3ncccc23)C[C@H](CN2CCN(c3ccccc3)CC2)O1` [ER-887258], in data set [1], the “safety window (hERG IC20/TLR7/8/9 IC50)” value is “much narrower safety window”, the “hERG IC20/TLR7 IC50” value came to 8.1 and the “hERG IC20/TLR9 IC50” value is on record as 0.3.

On to `C[C@@H]1CN(c2ccc(C#N)c3ncccc23)C[C@H](CN2CCN(c3ccccn3)CC2)O1` [ER-888285], for which, in data set [1], the “safety window (hERG IC20/TLR7/8/9 IC50)” value is “much narrower safety window”, the “hERG IC20/TLR7 IC50” value was found to be 8.4 and the “hERG IC20/TLR9 IC50” value was 0.5. For `C[C@@H]1CN(c2ccc(C#N)c3ncccc23)C[C@H](CN2CCN(c3ccncc3)CC2)O1` [ER-888286] the same measures were “much narrower safety window”, 0.3 and 0.2. As for `C[C@@H]1CN(c2ccc(C#N)c3ncccc23)C[C@H](CN2CC3(C2)CN(c2cnc4c(n2)CCNC4)CCO3)O1` [Example 50, 5-[(2R,6S)-2-methyl-6-[[8-(5,6,7,8-tetrahydropyrido[3,4-b]pyrazin-2-yl)-5-oxa-2,8-diazaspiro[3.5]nonan-2-yl]methyl]morpholin-4-yl]quinoline-8-carbonitrile], the “hERG IC20/TLR9 IC50” value in data set [1] is >144.9. In the case of `C[C@@H]1CN(c2ccc(C#N)c3ncccc23)C[C@H](CN2CCN(c3ccc4c(n3)CN[C@H]4C)CC2)O1` [Example 63, 5-[(2R,6S)-2-methyl-6-[[4-[(5S)-5-methyl-6,7-dihydro-5H-pyrrolo[3,4-b]pyridin-2-yl]piperazin-1-yl]methyl]morpholin-4-yl]quinoline-8-carbonitrile], the “Clearance of Human microsome” value in data set [2] worked out at 6.15 mL/min/kg. For `[2H]c1nc2c(C#N)ccc(N3C[C@H](CN4CCN(c5cc6c(cn5)[C@@H](C)NCC6)CC4)O[C@H](C)C3)c2nc1[2H]` [Example 95, 2,3-dideuterio-8-[(2R,6S)-2-methyl-6-[[4-[(8R)-8-methyl-5,6,7,8-tetrahydro-2,7-naphthyridin-3-yl]piperazin-1-yl]methyl]morpholin-4-yl]quinoxaline-5-carbonitrile], the “Clearance of Human microsome” value in data set [2] is 7.13 mL/min/kg. The same measure, in the same setting: then `[2H]c1nc2c(C#N)ccc(N3C[C@H](CN4CCN(c5ccc6c(n5)CN[C@H]6C)CC4)O[C@H](C)C3)c2nc1[2H]` [Example 96, 2,3-dideuterio-8-[(2R,6S)-2-methyl-6-[[4-[(5S)-5-methyl-6,7-dihydro-5H-pyrrolo[3,4-b]pyridin-2-yl]piperazin-1-yl]methyl]morpholin-4-yl]quinoxaline-5-carbonitrile], with 6.23 mL/min/kg; and `[2H]c1nc2c(C#N)ccc(N3C[C@H](CN4CCN(c5ccc6c(n5)CN[C@@H]6C)CC4)O[C@H](C)C3)c2nc1[2H]` [Example 97, 2,3-dideuterio-8-[(2R,6S)-2-methyl-6-[[4-[(5R)-5-methyl-6,7-dihydro-5H-pyrrolo[3,4-b]pyridin-2-yl]piperazin-1-yl]methyl]morpholin-4-yl]quinoxaline-5-carbonitrile], with 6.15 mL/min/kg; and `[2H]c1ccc2c(N3C[C@H](CN4CCN(c5ccc6c(n5)CN[C@@H]6C)CC4)O[C@H](C)C3)ccc(C#N)c2n1` [Example 98, 2-deuterio-5-[(2R,6S)-2-methyl-6-[[4-[(5R)-5-methyl-6,7-dihydro-5H-pyrrolo[3,4-b]pyridin-2-yl]piperazin-1-yl]methyl]morpholin-4-yl]quinoline-8-carbonitrile], with 8.02 mL/min/kg. On the same count and under the same terms, then `[2H]c1ccc2c(N3C[C@H](CN4CCN(c5ccc6c(n5)CN[C@H]6C)CC4)O[C@H](C)C3)ccc(C#N)c2n1` [Example 99, 2-deuterio-5-[(2R,6S)-2-methyl-6-[[4-[(5S)-5-methyl-6,7-dihydro-5H-pyrrolo[3,4-b]pyridin-2-yl]piperazin-1-yl]methyl]morpholin-4-yl]quinoline-8-carbonitrile], with 6.32 mL/min/kg. As to `COc1ccc(N2CCN(C[C@H]3CN(c4ccc(C#N)c5ncccc45)C[C@@H](C)O3)CC2)cc1` [Example R1, 5-[(2S,6R)-2-[[4-(4-methoxyphenyl)piperazin-1-yl]methyl]-6-methyl-morpholin-4-yl]quinoline-8-carbonitrile], in data set [1], the “safety window (hERG IC20/TLR7/8/9 IC50)” value is listed as “much narrower safety window”, the “hERG IC20/TLR7 IC50” value was 9.3 and the “hERG IC20/TLR9 IC50” value is given as 0.1. For `C[C@@H]1CN(c2ccc(C#N)c3ncccc23)C[C@H](CN2CCN(c3ccc(Cl)cc3)CC2)O1` [Example R2, 5-[(2S,6R)-2-[[4-(4-chlorophenyl)piperazin-1-yl]methyl]-6-methyl-morpholin-4-yl]quinoline-8-carbonitrile] the same measures were “much narrower safety window”, 1.3 and 0.04.
